For orientation: EC50 means the concentration that produces a half-maximal response.

Where two headings read alike, the source gives them in different places. Starred links: 1 amine or outer side, 2 acyl side, 3 side chain; linkers in the order of their positions; H or OH if unused. Non-standard residues stand in square brackets, D forms with d. Residues, ends and D or L forms follow the SMILES beside them. *: point of attachment. NH(1S,2S-2-CONH2-cPent) = NC(=O)[C@H]1CCC[C@@H]1N*; X12 = O=C([C@H]1CCC[C@@H]1N[*:1])[*:2]; X13 = O=C([C@H]1CNC[C@@H]1N[*:1])[*:2]; ACPC(1S,2S) = N[C@H]1CCC[C@@H]1C(=O)*; Aib = CC(C)(N)C(=O)O

The target of test [1] is T1, WT rat PTHR-1 (Rattus norvegicus, UniProt P25961).
T1 construct: expressed in transfected cells
T1 sequence (P25961 27-591): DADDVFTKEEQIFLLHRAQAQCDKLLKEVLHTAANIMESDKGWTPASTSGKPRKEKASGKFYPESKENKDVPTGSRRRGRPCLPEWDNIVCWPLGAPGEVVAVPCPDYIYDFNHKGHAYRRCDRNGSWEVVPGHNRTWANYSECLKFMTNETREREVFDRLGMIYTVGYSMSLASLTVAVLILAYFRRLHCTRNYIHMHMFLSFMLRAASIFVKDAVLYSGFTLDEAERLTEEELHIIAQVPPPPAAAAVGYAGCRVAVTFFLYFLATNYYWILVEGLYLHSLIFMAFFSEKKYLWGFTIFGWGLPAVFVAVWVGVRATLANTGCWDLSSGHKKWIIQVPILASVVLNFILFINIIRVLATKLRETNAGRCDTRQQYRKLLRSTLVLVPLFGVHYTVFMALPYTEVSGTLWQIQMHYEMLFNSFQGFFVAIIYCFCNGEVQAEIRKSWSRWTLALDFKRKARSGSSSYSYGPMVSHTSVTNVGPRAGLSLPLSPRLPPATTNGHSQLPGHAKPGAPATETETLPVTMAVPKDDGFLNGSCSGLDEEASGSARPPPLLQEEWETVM
Nature of the test: cAMP GloSensor dose-response in GR-35 cells expressing rat PTHR-1. The settings on record: Table 7; GR-35 cells, 12-16 minutes after ligand addition; mean ± SEM. It counts as cell-based. The method, then:
FIGS. 9A, 9B, and 9C constitute a series of graphs depicting cAMP responses in GR-35 cells expressing rat PTHR-1-WT. […] Data are means (±SEM) of n>4 experiments, each performed in duplicate.
(§1) For cAMP dose-response assays, monolayers of confluent HEK 293 cells were pre-incubated with buffer containing d-luciferin (0.5 mM) in 96 well plates at room temperature until a stable baseline level of luminescence was established (30 min). Varying concentrations of agonist were then added, and the time course of luminescence response was recorded using a Perkin Elmer plate reader following α/β-peptide addition.

The target in test [2] is T2, WT human PTHR-1 (Homo sapiens, UniProt Q03431).
T2 construct: bioactivity of the resulting compound in full-length hPTHR-1 and a truncated version; expressed in transfected cells
T2 sequence (Q03431 27-593): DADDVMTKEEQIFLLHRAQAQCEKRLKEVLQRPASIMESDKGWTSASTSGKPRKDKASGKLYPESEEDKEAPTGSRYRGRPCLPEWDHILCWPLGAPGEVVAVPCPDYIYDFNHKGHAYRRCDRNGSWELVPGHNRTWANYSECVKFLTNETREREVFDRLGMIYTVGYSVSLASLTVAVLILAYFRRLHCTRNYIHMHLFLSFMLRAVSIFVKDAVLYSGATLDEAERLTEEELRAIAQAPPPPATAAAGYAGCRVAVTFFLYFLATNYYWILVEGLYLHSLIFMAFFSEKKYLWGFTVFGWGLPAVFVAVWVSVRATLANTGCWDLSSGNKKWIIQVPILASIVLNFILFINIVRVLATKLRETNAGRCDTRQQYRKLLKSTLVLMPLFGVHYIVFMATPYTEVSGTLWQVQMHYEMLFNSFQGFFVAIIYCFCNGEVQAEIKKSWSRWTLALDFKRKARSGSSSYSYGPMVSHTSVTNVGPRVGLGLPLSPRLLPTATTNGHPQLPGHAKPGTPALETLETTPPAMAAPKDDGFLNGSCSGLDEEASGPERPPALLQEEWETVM
Nature of the test: cAMP GloSensor dose-response in GP-2.3 cells expressing human PTHR-1. It counts as cell-based. The settings on record: for cAMP (hPTHR-1) Max: Table 1, luminescence counts per second relative to PTH(1-34); for cAMP (hPTHR-1) Max / Max: 12-16 minutes after ligand addition; for Max: Table 6, GP-2.3 cells, mean ± SEM. The method, then:
FIGS. 8A, 8B, and 8C constitute a series of graphs depicting cAMP responses in GP-2.3 cells expressing wild-type human parathyroid hormone receptor 1 (PTHR-1-WT). […] Data are means (±SEM) of n>4 experiments, each performed in duplicate.
as §1

As to `CC[C@H](C)[C@H](NC(=O)[C@H](CCC(=O)O)NC(=O)[C@H](CO)NC(=O)[C@@H](NC(=O)[C@@H](N)CO)C(C)C)C(=O)N[C@@H](CCC(N)=O)C(=O)N[C@@H](CC(C)C)C(=O)N[C@@H](CCSC)C(=O)N[C@@H](Cc1c[nH]cn1)C(=O)N[C@@H](CC(N)=O)C(=O)N[C@@H](CC(C)C)C(=O)NCC(=O)N[C@@H](CCCCN)C(=O)N[C@@H](Cc1c[nH]cn1)C(=O)N[C@@H](CC(C)C)C(=O)N[C@@H](CC(N)=O)C(=O)N[C@@H](CO)C(=O)N[C@@H](CCSC)C(=O)N[C@@H](CCC(=O)O)C(=O)N[C@@H](CCCNC(=N)N)C(=O)N[C@H](C(=O)N[C@@H](CCC(=O)O)C(=O)N[C@H](CC(=O)N[C@@H](CC(C)C)C(=O)N[C@@H](CCCNC(=N)N)C(=O)N[C@@H](CCCCN)C(=O)N[C@@H](CCCCN)CC(=O)N[C@@H](CC(C)C)C(=O)N[C@@H](CCC(N)=O)C(=O)N[C@@H](CC(=O)O)C(=O)N[C@H](CC(=O)N[C@@H](Cc1c[nH]cn1)C(=O)N[C@@H](CC(N)=O)C(=O)N[C@@H](Cc1ccccc1)C(N)=O)C(C)C)Cc1c[nH]c2ccccc12)C(C)C` [A3], in test [1], the Max is on record as 74 ± 101 luminescence counts per second × 10−3. Besides, in test [2], the “cAMP (hPTHR-1) Max” value was 1.07 and the Max is given as 232 ± 15 luminescence counts per second × 10^−3. Besides, the “agonist activity at hPTHR-1 (cAMP response), in words” value in test [2] (maximum cAMP response compared with PTH(1-34)) is recorded as “full agonists of hPTHR-1”.

Turning to `CC[C@H](C)[C@H](NC(=O)[C@H](CCC(=O)O)NC(=O)[C@H](CO)NC(=O)[C@@H](NC(=O)[C@@H](N)CO)C(C)C)C(=O)N[C@@H](CCC(N)=O)C(=O)N[C@@H](CC(C)C)C(=O)N[C@@H](CCSC)C(=O)N[C@@H](Cc1c[nH]cn1)C(=O)N[C@@H](CC(N)=O)C(=O)N[C@@H](CC(C)C)C(=O)NCC(=O)N[C@@H](CCCCN)C(=O)N[C@@H](Cc1c[nH]cn1)C(=O)N[C@H](CC(=O)N[C@@H](CC(N)=O)C(=O)N[C@@H](CO)C(=O)N[C@@H](CCSC)C(=O)N[C@@H](CCC(=O)O)CC(=O)N[C@@H](CCCNC(=N)N)C(=O)N[C@H](C(=O)N[C@@H](CCC(=O)O)C(=O)N[C@H](CC(=O)N[C@@H](CC(C)C)C(=O)N[C@@H](CCCNC(=N)N)C(=O)N[C@@H](CCCCN)C(=O)N[C@@H](CCCCN)CC(=O)N[C@@H](CC(C)C)C(=O)N[C@@H](CCC(N)=O)C(=O)N[C@@H](CC(=O)O)C(=O)N[C@H](CC(=O)N[C@@H](Cc1c[nH]cn1)C(=O)N[C@@H](CC(N)=O)C(=O)N[C@@H](Cc1ccccc1)C(N)=O)C(C)C)Cc1c[nH]c2ccccc12)C(C)C)CC(C)C` [A5], the Max in test [1] was 54 ± 26 luminescence counts per second × 10−3. In test [2], the EC50 stood at 1.66 nM, the “cAMP (hPTHR-1) Max” value worked out at 1.12 and the Max is 244 ± 32 luminescence counts per second × 10^−3.

In the case of `CC[C@H](C)[C@H](NC(=O)[C@H]1CCC[C@@H]1NC(=O)[C@H](CO)NC(=O)[C@@H](NC(=O)[C@@H](N)CO)C(C)C)C(=O)N[C@@H](CCC(N)=O)C(=O)N[C@@H](CC(C)C)C(=O)N[C@@H](CCSC)C(=O)N[C@@H](Cc1c[nH]cn1)C(=O)N[C@@H](CC(N)=O)C(=O)N[C@@H](CC(C)C)C(=O)NCC(=O)N[C@@H](CCCCN)C(=O)N[C@@H](Cc1c[nH]cn1)C(=O)N[C@@H](CC(C)C)C(=O)N[C@@H](CC(N)=O)C(=O)N[C@@H](CO)C(=O)N[C@@H](CCSC)C(=O)N[C@@H](CCC(=O)O)C(=O)N[C@@H](CCCNC(=N)N)C(=O)N[C@H](C(=O)N[C@@H](CCC(=O)O)C(=O)N[C@@H](Cc1c[nH]c2ccccc12)C(=O)N[C@@H](CC(C)C)C(=O)N[C@@H](CCCNC(=N)N)C(=O)N[C@@H](CCCCN)C(=O)N[C@@H](CCCCN)C(=O)N[C@@H](CC(C)C)C(=O)N[C@@H](CCC(N)=O)C(=O)N[C@@H](CC(=O)O)C(=O)N[C@H](C(=O)N[C@@H](Cc1c[nH]cn1)C(=O)N[C@@H](CC(N)=O)C(=O)N[C@@H](Cc1ccccc1)C(N)=O)C(C)C)C(C)C` [ACPC(4)] (H-SVS[X12]IQLMHNLGKHLNSMERVEWLRKKLQDVHNF-NH2; N-terminus assumed), in test [2] (Table 8, cAMP-inducing potency, N-terminal modifications), the “hPTHR1 EC50, nM (Means ± SEM)” value was “No activity”.

Turning to `CC[C@H](C)[C@H](NC(=O)[C@H](CO)NC(=O)[C@H](CCCCN)NC(=O)CNC(=O)[C@H](CCCCN)NC(=O)[C@H](CC(=O)O)NC(=O)[C@H](Cc1c[nH]cn1)NC(=O)[C@H](CC(C)C)NC(=O)[C@H]1CCC[C@@H]1NC(=O)[C@H](CCC(N)=O)NC(=O)[C@H]1CCC[C@@H]1NC(=O)[C@H](CCC(=O)O)NC(=O)[C@H](CO)NC(=O)[C@@H](NC(=O)[C@H]1CCC[C@@H]1N)C(C)C)C(=O)N[C@@H](CCC(N)=O)C(=O)N[C@@H](CC(=O)O)C(=O)N[C@@H](CC(C)C)C(=O)N[C@@H](CCCNC(=N)N)C(=O)N[C@@H](CCCNC(=N)N)C(=O)N[C@@H](CCCNC(=N)N)C(=O)N[C@@H](CCC(=O)O)C(=O)N[C@@H](CC(C)C)C(=O)N[C@@H](CC(C)C)C(=O)N[C@@H](CCC(=O)O)C(=O)N[C@@H](CCCCN)C(=O)N[C@@H](CC(C)C)C(=O)N[C@@H](CC(C)C)C(=O)NC(C)(C)C(=O)N[C@@H](CCCCN)C(=O)N[C@@H](CC(C)C)C(=O)N[C@@H](Cc1c[nH]cn1)C(=O)N[C@H](C(=O)N[C@@H](C)C(N)=O)[C@@H](C)O` [BA058 ACPC(1,5,7), XVSEXQXLHDKGKSIQDLRRRELLEKLLUKLHTA-NH2] ({ACPC(1S,2S)}-VSE[X12]Q[X12]LHDKGKSIQDLRRRELLEKLL[Aib]KLHTA-NH2; N-terminus assumed), the 50% effective concentration (EC50) in test [2] (read-out: cAMP EC50) stood at 0.26 nM.

For `CC[C@H](C)[C@H](NC(=O)[C@H]1CCC[C@@H]1NC(=O)[C@H](CCCCN)NC(=O)CNC(=O)[C@H](CCCCN)NC(=O)[C@H](CC(=O)O)NC(=O)[C@H](Cc1cnc[nH]1)NC(=O)[C@H](CC(C)C)NC(=O)[C@H]1CCC[C@@H]1NC(=O)[C@H](CCC(N)=O)NC(=O)[C@H]1CCC[C@@H]1NC(=O)[C@H](CCC(=O)O)NC(=O)[C@H](CO)NC(=O)[C@@H](NC(=O)[C@H]1CCC[C@@H]1N)C(C)C)C(=O)N[C@@H](CCC(N)=O)C(=O)N[C@@H](CC(=O)O)C(=O)N[C@H]1CCC[C@@H]1C(=O)N[C@@H](CCCNC(=N)N)C(=O)N[C@@H](CCCNC(=N)N)C(=O)N[C@@H](CCCNC(=N)N)C(=O)N[C@H]1CNC[C@@H]1C(=O)N[C@@H](CC(C)C)C(=O)N[C@@H](CC(C)C)C(=O)N[C@@H](CCC(=O)O)C(=O)N[C@H]1CNC[C@@H]1C(=O)N[C@@H](CC(C)C)C(=O)N[C@@H](CC(C)C)C(=O)NC(C)(C)C(=O)N[C@H]1CCC[C@@H]1C(=O)N[C@@H](CC(C)C)C(=O)N[C@@H](Cc1cnc[nH]1)C(=O)N[C@H](C(=O)N[C@H]1CCC[C@@H]1C(N)=O)[C@@H](C)O` [CycD6 BA058 ACPC(1,5,7), XVSEXQXLHDKGKXIQDXRRRZLLEZLLUXLHTX-NH2] ({ACPC(1S,2S)}-VSE[X12]Q[X12]LHDKGK[X12]IQD[X12]RRR[X13]LLE[X13]LL[Aib][X12]LHT-{NH(1S,2S-2-CONH2-cPent)}), the EC50 in test [2] (read-out: cAMP EC50) is 0.65 nM.

Values taken from patent US10501518B2 (priority 2013, dated 2019).
